From ChEMBL document CHEMBL3352061, “Novel amino-β-lactam derivatives as potent cholesterol absorption inhibitors” (Eur J Med Chem, 2014) come the findings set out here.

Series [1] is described as follows: Inhibition of cholesterol uptake in MDCK2 cells at 20 to 100 uM after 1 hr by liquid scintillation counting. Format: cell-based, Canis lupus familiaris. Conditions: dog, mdck-ii; call rule not given here.
The nature of series [2]: Inhibition of cholesterol uptake in MDCK2 cells expressing human NPC1L1 at 20 to 100 uM after 1 hr by liquid scintillation counting. It is filed as cell-based, Canis lupus familiaris. To be noted: dog, mdck-ii.
A short description of series [3]: Inhibition of cholesterol uptake in MDCK2 cells expressing human NPC1L1 after 1 hr by liquid scintillation counting. Format: cell-based. Conditions: Canis lupus familiaris, MDCK-II.

On to `O=C1[C@H](CC[C@H](O)c2ccc(F)cc2)[C@@H](c2ccc(O)cc2)N1c1ccc(F)cc1` [EZETIMIBE], for which the “inhibition (INH)” value in series [1] is recorded as “Not Active”; in series [2] it was “Active”.
For `O=C1[C@H](NC[C@@H](O)c2ccc(F)cc2)[C@@H](c2ccc(O)cc2)N1c1ccc(F)cc1`, in series [3], the IC50 (usually the concentration at which inhibition is half-maximal) stood at 60 µM. This lies in the double-digit micromolar range.
The same measure, in the same setting: next, `O=C1[C@H](NC[C@H](O)c2ccc(F)cc2)[C@@H](c2ccc(O)cc2)N1c1ccc(F)cc1`: 80 µM.
